SMILES strings stand for the structures.

The results in this text go back to EP4616867A1, “COMBINATION OF ENDOTHELIN RECEPTOR ANTAGONIST AND GLUCOCORTICOID FOR TREATING IGA NEPHROPATHY” (Sanreno Therapeutics (Shanghai) Limited, priority 2022, dated 2024).

This experiment relates to IgA nephropathy model mice. As to the kind of experiment: Efficacy of atrasentan, methylprednisolone and combinations in IgA nephropathy model mice (CFA-stimulated humanized IGHA1 mice); blood hIgA1, IgG, IgM. It is filed as in vivo. Particulars: IgAN mice; for IgG, Difference between pre-treatment and post-treatment value (post-treatment minus pre-treatment), Mean (SD) / IgG, Difference between pre-treatment and post-treatment value (post-treatment minus pre-treatment), Median (Q1 - Q3) / IgM, Difference between pre-treatment and post-treatment value (post-treatment minus pre-treatment), Mean (SD) / IgM, Difference between pre-treatment and post-treatment value (post-treatment minus pre-treatment), Median (Q1 - Q3) / hIgA1, Difference between pre-treatment and post-treatment value (post-treatment minus pre-treatment), Mean (SD) / hIgA1, Difference between pre-treatment and post-treatment value (post-treatment minus pre-treatment), Median (Q1 - Q3): 30 days gavage; for IgG, After treatment, Mean (SD) / IgG, After treatment, Median (Q1 - Q3) / IgM, After treatment, Mean (SD) / IgM, After treatment, Median (Q1 -Q3) / hIgA1, After treatment, Mean (SD) / hIgA1, After treatment, Median (Q1 - Q3): after 30 days gavage, atrasentan 15 mg/kg/day, methylprednisolone 5 mg/kg/day, dapagliflozin 1 mg/kg/day; for IgG, Before treatment, Mean (SD) / IgG, Before treatment, Median (Q1 - Q3) / IgM, Before treatment, Mean (SD) / IgM, Before treatment, Median (Q1 - Q3) / hIgA1, Before treatment, Mean (SD) / hIgA1, Before treatment, Median (Q1 - Q3): baseline before dosing. The text has this: The present invention will be further described below through examples, but the examples are not meant to limit the scope of the present invention in any way. For the measurement methods of various parameters in the examples, reference should be made to Wan F, Wang H, Wang M, Lü J, Zhao M, Zhang H. Sustained release of Lactobacillus casei cell wall extract can induce a continuous and stable IgA deposition model. […] Chimeric Fusion between Clostridium Ramosum IgA Protease and IgG Fc Provides Long-Lasting Clearance of IgA Deposits in Mouse Models of IgA Nephropathy. […] The above-mentioned documents are incorporated into this application in their entirety. […] Complete Freunds adjuvant (CFA) and phosphate buffer solution (PBS) were mixed thoroughly and emulsified at a ratio of 1:1 to obtain a CFA injection that was intraperitoneally injected into 8-week-old humanized IGHA1 mice constructed in step 1. Four times the mouse body weight (4w μl) was injected every 2 weeks, administering a total of 6 injections over a time period of about 2.5 months. • 2. In this experiment, the 8-week-old humanized IgA1 mice underwent an induction period of 2 to 5 months after the final injection of CFA. Table 1 […] Each group received intraperitoneal injections of CFA injection to create a model. Upon model completion, atrasentan, methylprednisolone and/or dapagliflozin were administered as outlined below. The control group was administered an equal amount of solvent (an aqueous solution of 0.5% (w/v) methylcellulose and 0.5% (v/v) Tween 80) by gavage for 30 days. Dosing method: atrasentan (15 mg/kg/day), methylprednisolone (5 mg/kg/day), dapagliflozin (1 mg/kg/day) were administered by gavage every morning for 30 days. When co-administered, the required medicines were mixed together in the appropriate proportion (the dose of each medicine was calculated according to mouse body weight) before administration by gavage. […] Prior to dosing, once every 2 weeks during the dosing period, and on day 30 of dosing, urine creatinine, urine protein level, and albumin to creatinine ratio (ACR) were measured, and the mice checked for the presence of haematuria. Prior to dosing and on day 30 of dosing, renal tissue pathology was scored according to the Oxford classification system, IgA and C3 deposition in renal tissue was measured by immunofluorescence assay, and mice in each group were examined for cardiac pathology.

As to `C[C@H]1C[C@@H]2[C@H]([C@@H](O)C[C@@]3(C)[C@H]2CC[C@]3(O)C(=O)CO)[C@@]2(C)C=CC(=O)C=C12` [Methylprednisolone (MP), methylprednisolone], the “IgG, Difference between pre-treatment and post-treatment value (post-treatment minus pre-treatment), Mean (SD)” value is -0.10(0.20); the “IgG, Difference between pre-treatment and post-treatment value (post-treatment minus pre-treatment), Median (Q1 - Q3)” value is -0.09(-0.28 - 0.39); the “IgM, Difference between pre-treatment and post-treatment value (post-treatment minus pre-treatment), Mean (SD)” value is on record as -0.04(0.08); the “IgM, Difference between pre-treatment and post-treatment value (post-treatment minus pre-treatment), Median (Q1 - Q3)” value is reported as -0.05(-0.12 - 0.13). In addition, the “hIgA1, Difference between pre-treatment and post-treatment value (post-treatment minus pre-treatment), Mean (SD)” value is given as -0.03( 0.70); the “hIgA1, Difference between pre-treatment and post-treatment value (post-treatment minus pre-treatment), Median (Q1 - Q3)” value is -0.11 (-1.97 - 2.12); the “IgG, After treatment, Mean (SD)” value is 4.75(0.81); the “IgG, After treatment, Median (Q1 - Q3)” value is 3.56(3.22 - 7.06). The “IgM, After treatment, Mean (SD)” value was 1.51(0.33); the “IgM, After treatment, Median (Q1 -Q3)” value was 1.08(0.80 - 2.34); the “hIgA1, After treatment, Mean (SD)” value is on record as 6.63(0 .79); the “hIgA1, After treatment, Median (Q1 - Q3)” value is given as 6.23( 4.78 - 8.97). Besides, the “IgG, Before treatment, Mean (SD)” value was 4.85(0.94); the “IgG, Before treatment, Median (Q1 - Q3)” value is recorded as 3.75(3.04 - 7.83); the “IgM, Before treatment, Mean (SD)” value was 1.55(0.28); the “IgM, Before treatment, Median (Q1 - Q3)” value is on record as 1.31(0.90 - 2.22). Also, the “hIgA1, Before treatment, Mean (SD)” value was 6.66( 0.37) and the “hIgA1, Before treatment, Median (Q1 - Q3)” value was 6.69(6. 12 - 7.53).
As for `CCCCN(CCCC)C(=O)CN1C[C@H](c2ccc3c(c2)OCO3)[C@@H](C(=O)O)[C@@H]1c1ccc(OC)cc1` [Atrasentan (A), atrasentan], the “IgG, Difference between pre-treatment and post-treatment value (post-treatment minus pre-treatment), Mean (SD)” value is 1.69(0.35); the “IgG, Difference between pre-treatment and post-treatment value (post-treatment minus pre-treatment), Median (Q1 - Q3)” value is listed as 1.58(1.11 - 2.23); the “IgM, Difference between pre-treatment and post-treatment value (post-treatment minus pre-treatment), Mean (SD)” value is listed as 0.54(0.23); the “IgM, Difference between pre-treatment and post-treatment value (post-treatment minus pre-treatment), Median (Q1 - Q3)” value is on record as 0.38(0.07 - 0.69). Also, the “hIgA1, Difference between pre-treatment and post-treatment value (post-treatment minus pre-treatment), Mean (SD)” value was 5.95 (1.50); the “hIgA1, Difference between pre-treatment and post-treatment value (post-treatment minus pre-treatment), Median (Q1 - Q3)” value was 4.96 (3.03 - 8.99); the “IgG, After treatment, Mean (SD)” value is 5.04(0.10); the “IgG, After treatment, Median (Q1 - Q3)” value was 5.06(4.74 - 5.25). For the same molecule, the “IgM, After treatment, Mean (SD)” value is 2.08(0.45); the “IgM, After treatment, Median (Q1 -Q3)” value is recorded as 1.72(1.28 - 2.26); the “hIgA1, After treatment, Mean (SD)” value is listed as 15.99( 3.40); the “hIgA1, After treatment, Median (Q1 - Q3)” value was 12.99 (7.93 - 23.80). Also, the “IgG, Before treatment, Mean (SD)” value is on record as 3.35(0.36); the “IgG, Before treatment, Median (Q1 - Q3)” value is given as 3.32(2.90 - 4.14); the “IgM, Before treatment, Mean (SD)” value is listed as 1.55(0.25); the “IgM, Before treatment, Median (Q1 - Q3)” value is recorded as 1.31(1.02 - 1.97). Besides, the “hIgA1, Before treatment, Mean (SD)” value is recorded as 10.04 (2.46) and the “hIgA1, Before treatment, Median (Q1 - Q3)” value is 7.88(4. 24 - 16.39).
